The inhibition is the drop in the measured response relative to a control, in per cent.

Holding throughout (assay type): cell-based
In assay [1] the test system is human umbilical-vein endothelial cells (HUVEC). Description: Tube Formation Assay (TFA) Test, HUVEC in collagen gel. To be noted: 20 hours, 40% or less judged remarkable; for inhibition at 1 µg/mL / inhibition at 10 µg/mL: Homo sapiens, HUVEC, 20 h, read-out: TFA (inhibition rate, %). In short, it runs like this: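 Inhibition rate (%) of tube formation is computed from tube lengths against control (+) and control (-), measured after 20 h at 37 °C in M-199 with 20% FCS, 30 ng/ml b-FGF and 0.1 μM PMA. Samples were applied to HUVEC on collagen and covered by a second collagen layer (double-layer gel).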

The test system is the same in assay [2]. Description: Cell Migration Assay (CMA) Test, HUVEC (% relative to control). The note with it: 24 hours, 60% or less = remarkable inhibition; for activity at 1 µg/mL / activity at 10 µg/mL: Homo sapiens, HUVEC, read-out: CMA (% relative to control). Here is the method: (§1) Furthermore, the sample liquids of compounds used in the CPA and CMA tests were prepared in the manner described below. Firstly, after weighing out each compound, a calculated amount of DMSO was added. After dissolving the compound in the DMSO, phosphate buffered physiological saline (PBS (-)) was added to bring the sample concentration to 1 mg/ml in PBS (-). The amount of DMSO used to dissolve the compounds was adjusted in advance to that the concentration of DMSO at that time was 5%. The resulting liquids were diluted 10-fold with 5% DMSO-PBS (-) solution to prepare sample solutions having a concentration of 0.1 mg/ml. In the TFA test, 320 μl of the prepared 1 mg/ml sample solutions were removed followed by addition of 680 μl of PBS (-) to prepare samples having a concentration of […]. Moreover, 100 μl of this solution was removed followed by addition of 900 μl of PBS (-) to dilute 10-fold and prepare samples having a concentration of 1 μg/ml. P [Cell Proliferation Assay (CPA) Test]
After disseminating the 7th subculture of HUVEC obtained from the first generation in the same manner as above at 4 ml/well (3.0×10^5 cells/well) in a collagen-coated 6-well plate (NUNC), the cells were cultured for 48 hours at 37° C. in the presence of 5% CO2. The cells reached nearly a completely confluent state as a result of this culturing.
A double-edged, disposable razor blade was divided into four sections, of which one of those sections was pinched between a pair of forceps. Using this piece of razor blade, the cell surface in the above confluent state was scraped off. Two areas of the cell surface were scraped off in each well.
After washing the surface of the wells from which the cells had been scraped off with medium, 4.0 ml of fresh M199 (2+) medium were added followed by addition of 40 μl or 4 μl of sample solution (1 mg/ml). The cells were cultured for 24 hours at 37° C. in the presence of 5% CO2. After discarding the culture liquid, the cells were fixed for 30 minutes with methanol. Next, after staining the cells for 4 hours with Giemsa stain, the plates were washed with tap water and air dried.
Measurement of cell migration was performed by microscopically counting the number of cells that had newly migrated within the range of a 1 mm×1 mm block. […] The total number of cells counted in blocks 1 through 5 were then totaled to determine the overall total number of cells. Four fields were counted for each well.
Evaluation was performed determining the cell migration (%) according to the following formula.
Cell migration rate=number of migrating cells to which sample was added×100/number of migrating of control (+)
Control (+) indicates the number of migrating cells in the control well containing M199 (2+).

For assay [3] the test system is unchanged. The assay is described as follows: Cell Proliferation Assay (CPA) Test, HUVEC, MTT. The note with it: M199 (2+) medium; for IC50: Homo sapiens, read-out: CPA (IC50 μg/ml). As to the method: as §1
100 μl of the 7th subculture obtained from first generation human umbilical-vein endothelial cells (HUVEC) were disseminated in the wells (N=3) of a 96-well plate (Iwaki, Cat. #4860-010) at a cell concentration of 5×10^4 cells/ml. M-199 medium containing +20% FCS, 10 ng/ml of b-FGF and 10 ng/ml of EGF (abbreviated as "M199 (2+)") was used for the medium.
After culturing for 24 hours at 37° C. in the presence of 5% CO2 under the above conditions, 20 μl/well of MTT solution (solution containing 5 mg/ml of PBS (-)) were added to the control well followed by accurately culturing for 4 hours at 37° C. in the presence of 5% CO2. Following completion of culturing, 100 μl/well of a stop solution (0.001 N aqueous HCl solution containing 10% SDS) were added. On the other hand, 10 μl/well of sample solutions at concentrations of 1 mg/ml and 0.1 mg/ml were added to the other wells.
After culturing for 24 hours at 37° C. in the presence of 5% CO2, the medium was replaced and 100 μl/well of M199 (2+) were added. The samples were also replaced in each well at this time.
Moreover, after additionally culturing for 48 hours at 37° C. in the presence of 5% CO2, 20 μl/well of MTT solution were added to the wells containing sample and the control well followed by accurately culturing for 4 hours at 37° C. and adding 100 μl/well of stop solution.

Values after ≈ are worked out from the molar mass of the structure shown.

As to `CNC(=O)OC1OC=C(C(=O)N2CC(C)OC(C)C2)C2CC3OC3(C)C12` [compound 24, (1S,4aS,6S,7R,7aR)-6,7-epoxy-1,4a,5,6,7,7a-hexahydro-7-methyl-1-(methylcarbamoyloxy) cyclopenta [c]-pyrane-4-carboxylic acid 2,6-dimethylmorpholylamide], in assay [1] (1 μg/ml), the inhibition at 1 µg/mL is 41.3%. Further, the inhibition at 10 µg/mL in assay [1] (10 μg/ml) was 24.2%. Moreover, in assay [2] (1 μg/ml), the activity at 1 µg/mL was found to be 96.9%. The activity at 10 µg/mL in assay [2] (10 μg/ml) was 112%. The IC50 in assay [3] is more than 100 µg/mL.
In the same order, the values of `CNC(=O)O[C@@H]1OC=C(C(=O)NCCc2ccccc2)[C@H]2C[C@@H]3O[C@]3(C)[C@H]12` [compound 28, (1S,4aS,6S,7R,7aR)-6,7-epoxy-1,4a,5,6,7,7a-hexahydro-7-methyl-1-(methylcarbamoyloxy) cyclopenta [c]-pyrane-4-carboxylic acid phenylethylamide] are 41.3%, 36.8%, 94.3%, 114% and more than 100 µg/mL.
As for `C=CCCOC(=O)C1=CO[C@@H](OC(=O)NC)[C@@H]2[C@@H]1C[C@@H]1O[C@]21C` [compound 8, (1S,4aS,6S,7R,7aR)-6,7-epoxy-1,4a,5,6,7,7a-hexahydro-7-methyl-1-(methylcarbamoyloxy) cyclopenta [c]-pyrane-4-carboxylic acid 3-butenylester], the inhibition at 1 µg/mL in assay [1] (1 μg/ml) amounted to 27.3%. In addition, the inhibition at 10 µg/mL in assay [1] (10 μg/ml) came to 93.2%. Besides, the activity at 1 µg/mL in assay [2] (1 μg/ml) was 75.4%. Besides, in assay [2] (10 μg/ml), the activity at 10 µg/mL worked out at 60.5%. Besides, the IC50 in assay [3] was determined as 60.5 µg/mL (≈ 187 µM).
On the same counts, the results for `CNC(=O)O[C@@H]1OCC(C(=O)OC)[C@H]2C[C@@H]3O[C@]3(C)C12` (stereo in doubt) [Compound 55, (1S,4R,4aS,6S,7R,7aR)-6,7-epoxy-7-methyl-1-(methylcarbamoyloxy)-1,3,4,4a,5,6,7,7a-octahydrocyclopenta [c] pyrane-4-carboxylic acid methylester] are 13.9%, 3.8%, 97.8%, 91.8% and more than 100 µg/mL.
On the same counts, the results for `CNC(=O)O[C@@H]1OC=C(C(=O)NC)[C@H]2C[C@@H]3O[C@]3(C)[C@H]12` [compound 15, (1S,4aS,6S,7R,7aR)-6,7-epoxy-1,4a,5,6,7,7a-hexahydro-7-methyl-1-(methylcarbamoyloxy) cyclopenta [c]-pyrane-4-carboxylic acid methylamide] are -16%, -8%, 71.1%, 58.3% and more than 100 µg/mL.
As for Protamine [reference compound], the “TFA (inhibition rate, %)” value in assay [1] (1 μg/ml) turned out to be 41.0%; in assay [1] (10 μg/ml) it was 25.4%. For the same molecule, the “CMA (% relative to control)” value is listed as 69.2% in assay [2] (1 μg/ml) and 50.0% in assay [2] (10 μg/ml). The “CPA (IC50 μg/ml)” value in assay [3] was determined as 52.7 µg/mL.
Take `CNC(=O)O[C@@H]1OC=C(C(=O)OCCc2ccccc2)[C@H]2C[C@@H]3O[C@]3(C)[C@H]12` [compound 12, (1S,4aS,6S,7R,7aR)-6,7-epoxy-1,4a,5,6,7,7a-hexahydro-7-methyl-1-(methylcarbamoyloxy) cyclopenta [c]-pyrane-4-carboxylic acid phenylethylester]: the inhibition at 1 µg/mL in assay [1] (1 μg/ml) was 32.7%. Moreover, the inhibition at 10 µg/mL in assay [1] (10 μg/ml) was determined as 32.5%. Moreover, the activity at 1 µg/mL in assay [2] (1 μg/ml) was determined as 101%. Further, the activity at 10 µg/mL in assay [2] (10 μg/ml) worked out at 89.8%. Moreover, the IC50 in assay [3] was more than 100 µg/mL.
Regarding `CNC(=O)OC[C@@H]1[C@@H](C)CC[C@@H]1C1(COC(=O)NC)CO1` (stereo partly drawn) [Compound 59, 2-[(1S,2R,3S)-2-(methylcarbamoyloxy)methyl-3-methylcyclopento-1-yl]-2,3-epoxy-propane-1-methylcarbamate], the “TFA (inhibition rate, %)” value in assay [1] (1 μg/ml) is on record as 5.9%; in assay [1] (10 μg/ml) it was -4.5%. The “CMA (% relative to control)” value in assay [2] (1 μg/ml) was 99.3%; in assay [2] (10 μg/ml), 92.5%. For the same molecule, in assay [3], the “CPA (IC50 μg/ml)” value is more than 100.0 µg/mL.
On to `CNC(=O)O[C@@H]1OC=C(C(=O)NCc2ccccc2)[C@H]2C[C@@H]3O[C@]3(C)[C@H]12` [compound 27, (1S,4aS,6S,7R,7aR)-6,7-epoxy-1,4a,5,6,7,7a-hexahydro-7-methyl-1-(methylcarbamoyloxy) cyclopenta [c]-pyrane-4-carboxylic acid benzylamide], for which, in assay [1] (1 μg/ml), the inhibition at 1 µg/mL was determined as 29.1%. In assay [1] (10 μg/ml), the inhibition at 10 µg/mL was determined as 32.7%. Further, in assay [2] (1 μg/ml), the activity at 1 µg/mL worked out at 94.5%. In addition, the activity at 10 µg/mL in assay [2] (10 μg/ml) was determined as 103%. The IC50 in assay [3] was more than 100 µg/mL.
`CCCCCCOC(=O)C1=CO[C@@H](OC(=O)NC)[C@@H]2[C@@H]1C[C@@H]1O[C@]21C` [compound 5, (1S,4aS,6S,7R,7aR)-6,7-epoxy-1,4a,5,6,7,7a-hexahydro-7-methyl-1-(methylcarbamoyloxy) cyclopenta [c]-pyrane-4-carboxylic acid n-hexylester]: the inhibition at 1 µg/mL in assay [1] (1 μg/ml) amounted to 20.8%. For the same molecule, the inhibition at 10 µg/mL in assay [1] (10 μg/ml) amounted to 34.5%. Besides, the activity at 1 µg/mL in assay [2] (1 μg/ml) was 98.6%. In addition, in assay [2] (10 μg/ml), the activity at 10 µg/mL amounted to 82%. Also, the IC50 in assay [3] amounted to 44.9 µg/mL (≈ 127 µM).
On the same counts, the results for `CNC(=O)O[C@@H]1OC=C(C(=O)O)[C@H]2C[C@@H]3O[C@]3(C)[C@H]12` [compound 1, (1S,4aS,6S,7R,7aR)-6,7-epoxy-1,4a,5,6,7,7a-hexahydro-7-methyl-1-(methylcarbamoyloxy) cyclopenta [c]-pyrane-4-carboxylic acid] are 49.8%, 37.8%, 98.5%, 93.5% and more than 100 µg/mL.
Regarding `CO[C@@H]1[C@H](OC(=O)/C=C/C=C/C=C/C=C/C(=O)O)CC[C@]2(CO2)[C@H]1[C@@]1(C)O[C@@H]1CC=C(C)C` [Fumagilline, reference compound], the activity at 1 µg/mL in assay [2] (1 μg/ml) worked out at 95.5%. The activity at 10 µg/mL in assay [2] (10 μg/ml) is 74.2%. For the same molecule, the IC50 in assay [3] was determined as 33.3 µg/mL (≈ 72.6 µM).
In the same order, the values of `CCCCCCNC(=O)O[C@@H]1OC=C(C(=O)OC)[C@H]2C[C@@H]3O[C@]3(C)[C@H]12` [compound 33, (1S,4aS,6S,7R,7aR)-6,7-epoxy-1-(n-hexylcarbamoyloxy)-1,4a,5,6,7,7a-hexahydro-7-methylcyclopenta [c] pyrane-4-carboxylic acid methylester] are 109%, 102% and more than 100 µg/mL.

For the origin of these results see patent US6225478A, “Iridoid derivatives and neovascularization inhibitors containing the same as active ingredient” (Tsumura & Co., priority 1999, dated 2001).
